Measurements as given in patent US4148795A, “Dithiocarbamate ester bactericides and fungicides” (American Cyanamid Company, priority 1976, dated 1979).
Where “and” joins values, the source holds several entries; their conditions need not be identical. Identical values can stand only once. Like-named read-outs stand apart in the source and are kept apart here.

Experiments:
[1] = tested on: Colletotrichum lagenarium; conditions: in vivo; note: key: 5: clean, no disease; 4: trace of disease; 3: slight disease; 2: moderate disease; 1: severe disease; 0: like controls
Phytophthora infestans = type: in vivo; parameters: scale not given here; conditions: Tomato Late Blight, five days
Piricularia oryzae = type: in vivo; parameters: scale not given here; conditions: Rice Blast, five days
Xanthomonas vesicatoria = type: cell-based; conditions: 100 ppm; subcultures 72 hours at 37° C; note: key: 0: No Effect; 9: Kill of Bacteria; 5: Stasis, but not Kill of all Bacteria
Aspergillus niger [2] = assay: Spore germination inhibition; type: cell-based; conditions: 24 hours
Outline: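 Test compound is suspended in water at 100, 10 or 1 ppm. and dispensed into one dram "opticlear" vials. Each vial receives one drop of a spore suspension taken from seven-day Aspergillus niger cultures grown on potato-dextrose agar. Capped vials rotate on a tumbler for 24 hours, then are inspected for inhibition of mycelial growth.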

Monilinia fructicola [3] = assay: Spore germination inhibition; type: cell-based; conditions: for inhibition at 1 ppm / inhibition at 10 ppm: 24 hours; for inhibition at 100 ppm: 24 h, read-out: % Inhibition of Spore Germination
Outline: (§1)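 Test compounds were suspended in water at 100, 10 or 1 ppm and inoculated with spore suspensions from 7-day (A. niger) or 14-day potato-dextrose agar cultures. Vials were tumbled for 24 hours and then examined for inhibition of mycelial growth.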

[4] = tested on: Stemphylium sarcinaeforme; assay: Spore germination inhibition; type: cell-based; conditions: Stemphylium sarciniforme; for inhibition at 100 ppm: 24 h, read-out: % Inhibition of Spore Germination
Outline: as §1

Verticillium albo-atrum = assay: Agar dilution plate; type: cell-based; conditions: Va; 100 ppm, 72 hours at 23° C
Outline: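 Compounds incorporated at about 100 ppm into Sabouraud's dextrose agar, then inoculated with the fungus and incubated about 72 hours at 23° C. Growth scored as 0 (no control) or 5 (100% effectiveness); test repeated twice.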

[5] = tested on: Stemphylium sarcinaeforme; assay: Agar dilution plate; type: cell-based; conditions: Ss; 100 ppm, 72 hours at 23° C
Outline: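 Compound incorporated into Sabouraud's dextrose agar at about 100 ppm, inoculated with Stemphylium sarcinaeforme and incubated about 72 hours at 23 °C. Growth scored 0 (no control) or 5 (100% effectiveness), test run in repeat.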

Pseudomonas solaracaerum = type: cell-based; conditions: 100 ppm, 72 hours at 23° C; note: key: 0: no control; 5: 100% effectiveness of the test compound against the specified organism
Aerobacter aerogenes = type: cell-based; conditions: 100 ppm; subcultures 72 hours at 37° C; note: key: 0: No Effect; 9: Kill of Bacteria; 5: Stasis, but not Kill of all Bacteria
Staphylococcus aureus = type: cell-based; conditions: 100 ppm; subcultures 72 hours at 37° C; note: key: 0: No Effect; 9: Kill of Bacteria; 5: Stasis, but not Kill of all Bacteria
Pythium de Baryanum = assay: Agar dilution plate; type: cell-based; conditions: Pd; 100 ppm, 72 hours at 23° C
Outline: (§2)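 Fungal inoculum on Sabouraud's dextrose agar dosed at approx. 100 ppm compound, 23° C for ~72 h. Growth rated 0 = no control, 5 = 100% effectiveness.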

Rhizoctonia solani = assay: Agar dilution plate; type: cell-based; conditions: Rs; 100 ppm, 72 hours at 23° C
Outline: as §2

Aspergillus niger [6] = assay: Agar dilution plate; type: cell-based; conditions: An; 100 ppm, 72 hours at 23° C
Outline: as §2

Monilinia fructicola [7] = assay: Agar dilution plate; type: cell-based; conditions: Mf; 100 ppm, 72 hours at 23° C
Outline: as §2

Fusarium lycopersici = assay: Agar dilution plate; type: cell-based; conditions: Fl; 100 ppm, 72 hours at 23° C
Outline: as §2

[8] = tested on: Collectotrichum lagenarium; assay: Agar dilution plate; type: cell-based; conditions: Cl; 100 ppm, 72 hours at 23° C
Outline: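 Compounds were incorporated at about 100 ppm in Sabouraud's dextrose agar, inoculated, and incubated about 72 h at 23 °C. Growth was scored 0 (no control) or 5 (100% effectiveness), and the test was repeated twice.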

Venturia inaequalis = conditions: in vivo; note: key: 5: clean, no disease; 4: trace of disease; 3: slight disease; 2: moderate disease; 1: severe disease; 0: like controls

SMILES	disease control index [1]	disease control index (Piricularia oryzae; 150 ppm)	disease control index (Piricularia oryzae; 300 ppm)	Antibacterial Activity rating (Xanthomonas vesicatoria)	inhibition at 1 ppm (Aspergillus niger [2]) [%]	inhibition at 10 ppm (Aspergillus niger [2]) [%]	Agar Dilution Plate rating (Verticillium albo-atrum)	Agar Dilution Plate rating [5]	Agar Dilution Plate rating (Pseudomonas solaracaerum)	Antibacterial Activity rating (Aerobacter aerogenes)	Antibacterial Activity rating (Staphylococcus aureus)	Agar Dilution Plate rating (Pythium de Baryanum)	Agar Dilution Plate rating (Rhizoctonia solani)	Agar Dilution Plate rating (Aspergillus niger [6])	Agar Dilution Plate rating (Monilinia fructicola [7])	Agar Dilution Plate rating (Fusarium lycopersici)	Agar Dilution Plate rating [8]	disease control index (Venturia inaequalis)	disease control index (Phytophthora infestans; at 100 ppm)	disease control index (Phytophthora infestans; at 500 ppm)	other results
O=[N+]([O-])C(CSC(=S)N1CCCCC1)CSC(=S)N1CCCCC1 [Example 3, 2-Nitrotrimethylene 1-Piperidinecarbodithioate]	4	5	5																		disease control index (Phytophthora infestans; 150 ppm): 4; disease control index (Phytophthora infestans; 300 ppm): 4
CN(C)CC(C)(CSC(=S)N(C)C)[N+](=O)[O-] (stereo not drawn) [Example 7, 3-Dimethylamino-2-methyl-2-nitropropyl Dimethyldithiocarbamate]	2	2	2	5	0	100	5 (100% effectiveness of the test compound against the specified organism)	5 (100% effectiveness of the test compound against the specified organism)	0	9	9	0	5 (100% effectiveness of the test compound against the specified organism)	0	5 (100% effectiveness of the test compound against the specified organism)	0	5 (100% effectiveness of the test compound against the specified organism)	5 and 0			inhibition at 100 ppm (Aspergillus niger [2]): 100%; inhibition at 1 ppm (Monilinia fructicola [3]): 0%; inhibition at 10 ppm (Monilinia fructicola [3]): 100%; inhibition at 100 ppm (Monilinia fructicola [3]): 100%; inhibition at 100 ppm [4]: 0%; disease control index (Piricularia oryzae; 600 ppm): 4; disease control index (Piricularia oryzae; 1200 ppm): 5
CN(C)C(=S)SC(c1ccc(Cl)cc1Cl)C(C(c1ccc(Cl)cc1Cl)N(C)C)[N+](=O)[O-] (stereo not drawn) [Example 8, 1,3-Bis(2,4-dichlorophenyl)-3-dimethylamino-2-nitropropyl Dimethyldithiocarbamate]	5			0			5 (100% effectiveness of the test compound against the specified organism)	0	0	0	5	0	0	0	5 (100% effectiveness of the test compound against the specified organism)	0	0	5 and 4	5	5	disease control index (Piricularia oryzae; at 100 ppm): 5; disease control index (Piricularia oryzae; at 500 ppm): 5
O=[N+]([O-])CC(SC(=S)N1CCCCC1)c1ccccc1 (stereo not drawn) [Example 16, α-(Nitromethyl)benzyl 1-Piperidinecarbodithioate]	5	5	5															5			
CC(C(SC(=S)N(C)C)c1ccccc1)[N+](=O)[O-] (stereo not drawn) [Example 18, α-(1-Nitroethyl)benzyl Dimethyldithiocarbamate]	5			0			5 (100% effectiveness of the test compound against the specified organism)	5 (100% effectiveness of the test compound against the specified organism)	0	0	5	5 (100% effectiveness of the test compound against the specified organism)	5 (100% effectiveness of the test compound against the specified organism)	0	5 (100% effectiveness of the test compound against the specified organism)	5 (100% effectiveness of the test compound against the specified organism)	5 (100% effectiveness of the test compound against the specified organism)	5	5	5	disease control index (Piricularia oryzae; at 100 ppm): 5; disease control index (Piricularia oryzae; at 500 ppm): 5
CN(C)C(=S)SC(C[N+](=O)[O-])c1ccc2c(c1)OCO2 (stereo not drawn) [Example 28, 3,4-(Methylenedioxy)-α-(nitromethyl)benzyl Dimethyldithiocarbamate]	5	0	0	5	100	100	5 (100% effectiveness of the test compound against the specified organism)	5 (100% effectiveness of the test compound against the specified organism)	0	9	5	5 (100% effectiveness of the test compound against the specified organism)	0	0	5 (100% effectiveness of the test compound against the specified organism)	0	5 (100% effectiveness of the test compound against the specified organism)	5 and 0	5	5	inhibition at 100 ppm (Aspergillus niger [2]): 100%; inhibition at 1 ppm (Monilinia fructicola [3]): 100%; inhibition at 10 ppm (Monilinia fructicola [3]): 100%; inhibition at 100 ppm (Monilinia fructicola [3]): 100%; inhibition at 100 ppm [4]: 100%; inhibition at 1 ppm ([4]; 1 ppm, 24 hours): 0%; inhibition at 10 ppm ([4]; 10 ppm, 24 hours): 0%; disease control index (Piricularia oryzae; 600 ppm): 5; disease control index (Piricularia oryzae; 1200 ppm): 5
